Source: US4146718A, “Alkyl 5,6-dichloro-3,4-dihydro-2(1H)-iminoquinazoline-3-acetate hydrohalides” (Bristol-Myers Company, priority 1978, dated 1979)
Values after ≈ are worked out from the molar mass of the structure shown. Structures can show the parent of a compound that is named as a salt. Where two headings read alike, the source gives them in different places.

Experiments:
[1] = test system: Rabbit - PRP (ADP- and collagen-induced platelet aggregation); experiment: Aggregometry - Rabbit - PRP, In Vitro; assay type: cell-based; conditions: Oryctolagus cuniculus
Excerpt: (§1) As stated above, the compound of Formula I is a known blood platelet antiaggregative agent. Table I compares the activities of the compound of Formula I and other known blood platelet antiaggregative agents in various antiaggregative and antithrombosis tests. Although the compounds of Formula III are primarily intended as intermediates in the preparation of the compound of Formula I, they themselves have blood platelet antiaggregative properties. For comparison purposes, one of the compounds of Formula III (R^1 = ethyl, X = bromo) is included in Table I. The tests referred to in Table I were conducted as set out in detail in J. S. Fleming, et al., Journal of Pharmacology and Experimental Therapeutics, 194, 435 (1975).
(§2) Antiaggregative and Antithrombosis Tests in Various In Vitro, Ex Vivo
(§3) Aggregometry - Rabbit - PRP
(§4) (μg/ml) (mg/kp ip) Biolaser
(§5) PRP = Platelet-rich plasma
(§6) ADP = Adenosine diphosphate

[2] = test system: Rabbit - PRP (ADP- and collagen-induced platelet aggregation); experiment: Aggregometry - Rabbit - PRP, Ex Vivo; assay type: in vivo; conditions: Oryctolagus cuniculus, ip
Excerpt: as §1, §2, §3, §4, §5, §6

Biolaser Thrombosis = experiment: In Vivo Animal Model: Rabbit Biolaser Thrombosis; conditions: Oryctolagus cuniculus, read-out: ED50, Rabbit Biolaser Thrombosis
Electrical Thrombosis = experiment: In Vivo Animal Model: Dog Electrical Thrombosis; conditions: Canis lupus familiaris, read-out: ED50, Dog Electrical Thrombosis
Endotoxin Shock = experiment: In Vivo Animal Model: Rat Endotoxin Shock; conditions: po
Excerpt: as §1
In Vivo Animal Models ED50's (mg/kg)

[3] = ADP, read-out: In Vitro EC50, ADP
[4] = Collagen, read-out: In Vitro EC50, Collagen
[5] = ADP, read-out: Ex Vivo ED50, ADP
[6] = Collagen, read-out: Ex Vivo ED50, Collagen

| Structure (SMILES) | EC50 [1, 3] [µg/mL] | EC50 [1, 4] [µg/mL] | ED50 [2, 5] [mg/kg] | ED50 [2, 6] [mg/kg] | ED50 (Biolaser Thrombosis; rabbit, po) [mg/kg] | ED50 (Electrical Thrombosis; dog, po) [mg/kg] | ED50 (Endotoxin Shock) [mg/kg] | ED50 (Biolaser Thrombosis; rabbit, iv) [mg/kg] | ED50 (Electrical Thrombosis; dog, ip) [mg/kg] | ED50 (Biolaser Thrombosis; iv) [mg/kg] | ED50 (Electrical Thrombosis; po) [mg/kg] |
| --- | --- | --- | --- | --- | --- | --- | --- | --- | --- | --- | --- |
| CCOC(=O)CN1Cc2c(ccc(Cl)c2Cl)NC1=N [Compound III, Ethyl 5,6-Dichloro-3,4-dihydro-2(1H)-iminoquinazoline-3-acetate Hydrobromide] | 9 | 3.6 | – | – | – | – | – | – | – | – | – |
| O=C1CN2Cc3c(ccc(Cl)c3Cl)N=C2N1 [Compound I, 6,7-dichloro-1,5-dihydroimidazo[2,1-b]quinazolin-2(3H)-one] | 0.3 (≈ 1.17 µM) | 0.08 (≈ 0.312 µM) | 1.25 | 1 | 2.5 | 1.5 | 25 | – | – | – | – |
| OCCN(CCO)c1nc(N2CCCCC2)c2nc(N(CCO)CCO)nc(N3CCCCC3)c2n1 [Dipyridamole] | > 512 | – | > 100 | > 100 | – | – | > 256 | > 60 | > 35 | – | – |
| CC(=O)Oc1ccccc1C(=O)O [Aspirin] | > 512 | 7 (≈ 38.9 µM) | > 100 | 3 | – | – | > 256 | – | – | > 60 | 50 |
| O=C1C(CC[S+]([O-])c2ccccc2)C(=O)N(c2ccccc2)N1c1ccccc1 (centres unmarked) [Sulfinpyrazone] | > 512 | 62 (≈ 153 µM) | > 100 | 3 | – | > 100 | > 128 | > 60 | – | – | – |
